Assay results taken from US11180497B2 (ANGEX PHARMACEUTICAL, INC., priority 2017, dated 2021).

Biological target: T1, Human IDO (Homo sapiens, UniProt P14902)
T1 construct: High control is Hela cells with IFNγ treatment; endogenous in cells; host or cells: HeLa cells treated with 25 ng/ml IFNγ
Assay: HeLa cell IDO assay (IFNγ-treated cells, N-formylkynurenine by RapidFire/MS/MS)
Format: cell-based
Details: 25 ng/ml IFNγ, 200 μM Trp, 48 hours, class symbol

T1 sequence (P14902 whole entry): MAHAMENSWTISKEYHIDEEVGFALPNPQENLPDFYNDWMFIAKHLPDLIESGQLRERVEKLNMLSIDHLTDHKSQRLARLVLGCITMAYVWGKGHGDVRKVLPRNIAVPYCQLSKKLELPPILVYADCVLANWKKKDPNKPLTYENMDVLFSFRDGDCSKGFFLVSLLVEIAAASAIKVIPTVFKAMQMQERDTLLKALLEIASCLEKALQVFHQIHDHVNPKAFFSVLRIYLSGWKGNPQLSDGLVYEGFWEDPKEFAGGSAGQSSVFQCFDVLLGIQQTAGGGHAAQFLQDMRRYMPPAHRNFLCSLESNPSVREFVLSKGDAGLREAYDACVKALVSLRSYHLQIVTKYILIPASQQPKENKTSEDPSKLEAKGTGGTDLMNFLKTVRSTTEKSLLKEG

Row | SMILES | IC50
1 | O=C([C@H]1C[C@]12CC[C@H](c1ccnc3ccc(F)cc31)CC2)N1CCC(C(F)(F)F)CC1 [Compound 1-20] | > 1000 nM
2 | O=C(Nc1ccc(Cl)cc1)C1CC2(CCC(c3ccnc4ccc(F)cc34)CC2)C1 (single isomer, unassigned) [Compound 16-8, N-(4-chlorophenyl)-7-(6-fluoroquinolin-4-yl)spiro[3.5]nonane-2-carboxamide] | > 1000 nM
3 | O=C(NN1CCCCC1)[C@H]1C[C@]12CC[C@H](c1ccnc3ccc(F)cc31)CC2 [Compound 1-18] | > 1000 nM
4 | O=C(N[C@H]1CC2(CC[C@H](c3ccnc4ccc(F)cc43)CC2)C1)c1ccncc1 (stereo partly shown) [Compound 17-9] | 100 to 1000 nM
5 | N#Cc1ccc(C(=O)N[C@H]2CC3(CC[C@H](c4ccnc5ccc(F)cc54)CC3)C2)cc1 (stereo partly shown) [Compound 17-8] | < 100 nM
6 | O=C(Nc1ccc(Br)cc1F)[C@H]1C[C@]12CC[C@H](c1ccnc3ccc(F)cc31)CC2 (single isomer, unassigned) [Compound 4-8] | < 100 nM
7 | O=C(NC1CC2(CCN(c3ccnc4ccc(F)cc34)CC2)C1)c1ccc(Cl)cc1 [Compound 18-5, 4-chloro-N-(7-(6-fluoroquinolin-4-yl)-7-azaspiro[3.5]nonan-2-yl)benzamide] | < 100 nM
8 | O=C(Nc1ccc(Br)cc1)[C@H]1C[C@]12CC[C@H](c1ccnc3ccc(F)cc31)CC2 (single isomer, unassigned) [Compound 4-4] | < 100 nM
9 | O=C(Nc1ccc(F)cc1)[C@H]1C[C@]12CC[C@H](c1ccnc3ccc(F)cc31)CC2 [Compound 1-12] | < 100 nM
10 | O=C(Nc1ccc(Cl)cc1)C1([C@H]2CC[C@@H](c3ccnc4ccc(F)cc43)CC2)CC1 [Compound 24-5A, N-(4-chlorophenyl)-1-(4-(6-fluoroquinolin-4-yl)cyclohexyl)cyclopropyl-1-carboxamide] | < 100 nM
11 | O=C(Nc1ccc(Cl)cc1)C1CC12CCC(c1ccnc3ccc(F)cc13)CC2 (stereo not shown) [Compound 1-9, N-(4-chlorophenyl)-6-(6-fluoroquinolin-4-yl)spiro[2.5]octane-1-carboxamide] | < 100 nM
12 | O=C(Nc1ccc(C(F)(F)F)cc1)[C@H]1C[C@]12CC[C@H](c1ccnc3ccc(F)cc31)CC2 [Compound 2-4] | 100 to 1000 nM
13 | O=C(Nc1ccc(Cl)cc1F)[C@H]1C[C@]12CC[C@H](c1ccnc3ccc(F)cc31)CC2 (single isomer, unassigned) [Compound 4-7] | < 100 nM
14 | O=C(NC1CC12CCC(c1ccnc3ccc(F)cc13)CC2)c1ccc(Cl)cc1 (single isomer, unassigned) [Compound 9-4, 4-chloro-N-(6-(6-fluoroquinolin-4-yl)spiro[2.5]octan-1-yl)benzamide] | < 100 nM
15 | O=C(Nc1ccc(Cl)cc1)C1CC2(CCC(c3ccnc4ccncc34)CC2)C1 (single isomer, unassigned) [Compound 20-9, N-(4-chlorophenyl)-7-(1,6-naphthyridin-4-yl)spiro[3.5]nonane-2-carboxamide] | > 1000 nM
16 | O=C(NC1CC2(CCC(c3ccnc4ccc(F)cc34)CC2)C1)c1ccc(Cl)cc1 (single isomer, unassigned) [Compound 17-7, 4-chloro-N-(7-(6-fluoroquinolin-4-yl)spiro[3.5]nonan-2-yl)benzamide] | 100 to 1000 nM
17 | CC1(C(=O)Nc2ccc(Cl)cc2)CC12CCC(c1ccnc3ccc(F)cc13)CC2 (single isomer, unassigned) [Compound 11-6, N-(4-chlorophenyl)-6-(6-fluoroquinolin-4-yl)-1-methylspiro[2.5]octane-1-carboxamide] | < 100 nM
18 | O=C(NC1(C2CCN(c3ccnc4ccc(F)cc34)CC2)CC1)c1ccc(Cl)cc1 [Compound 27-3, 4-chloro-N-[1-[1-(6-fluoroquinolin-4-yl)piperidin-4-yl]cyclopropyl]benzamide] | 100 to 1000 nM
19 | O=C(NC1CC2(CCN(c3ccnc4ccncc34)CC2)C1)c1ccc(Cl)cc1 [Compound 22-5, N-(7-(1,6-naphthyridin-4-yl)-7-azaspiro[3.5]nonan-2-yl)-4-chlorobenzamide] | > 1000 nM
20 | N#Cc1ccc(NC(=O)C2CC23CCC(c2ccnc4ccc(F)cc24)CC3)cc1 (stereo not shown) [Compound 2-1, N-(4-cyanophenyl)-6-(6-fluoroquinolin-4-yl)spiro[2.5]octane-1-carboxamide] | < 100 nM
21 | O=C(Nc1ccc(Cl)cc1)C1CC2(CCC(c3ccnc4ccncc34)CC2)C1 (single isomer, unassigned) [Compound 20-8, N-(4-chlorophenyl)-7-(1,6-naphthyridin-4-yl)spiro[3.5]nonane-2-carboxamide] | < 100 nM
22 | O=C(Nc1ccc(Cl)c(F)c1)[C@H]1C[C@]12CC[C@H](c1ccnc3ccc(F)cc31)CC2 [Compound 1-19] | < 100 nM
23 | O=C(NC1(C2CCC(c3ccnc4ccc(F)cc34)CC2)CC1)c1ccc(Cl)cc1 (stereo not shown) [Compound 23-5A, 4-chloro-N-(1-(4-(6-fluoroquinolin-4-yl)cyclohexyl)cyclopropyl)-benzamide] | < 100 nM
24 | O=C(Nc1ccc(Cl)cc1)C1CCC12CCC(c1ccnc3ccc(F)cc13)CC2 (stereo not shown) [Compound 15-3, N-(4-chlorophenyl)-7-(6-fluoroquinolin-4-yl)spiro[3.5]nonane-1-carboxamide] | > 1000 nM
25 | N#Cc1ccc(NC(=O)[C@H]2C[C@]23CC[C@H](c2ccnc4ccc(F)cc42)CC3)nc1 [Compound 3-3] | 100 to 1000 nM

Row | SMILES | IC50
26 | O=C(Nc1ccccc1F)[C@H]1C[C@]12CC[C@H](c1ccnc3ccc(F)cc31)CC2 [Compound 1-16] | 100 to 1000 nM
27 | COc1ccc2nccc([C@H]3CC[C@@]4(CC3)C[C@@H]4C(=O)Nc3ccc(Cl)cc3)c2c1 [Compound 8-4D] | 100 to 1000 nM
28 | O=C(NC1CC12CCC(c1ccnc3ccc(F)cc13)CC2)c1ccc(Cl)cc1 (single isomer, unassigned) [Compound 9-5, 4-chloro-N-(6-(6-fluoroquinolin-4-yl)spiro[2.5]octan-1-yl)benzamide] | > 1000 nM
29 | O=C(N[C@H]1CC2(CC[C@H](c3ccnc4ccncc43)CC2)C1)c1ccc(Cl)cc1 (single isomer, unassigned) [Compound 21-4] | < 100 nM
30 | O=C(Nc1ccc(Cl)cn1)[C@H]1C[C@]12CC[C@H](c1ccnc3ccc(F)cc31)CC2 [Compound 2-3] | 100 to 1000 nM
31 | COc1ccc2ncnc([C@H]3CC[C@@]4(CC3)C[C@@H]4C(=O)Nc3ccc(Cl)cc3)c2c1 [Compound 8-4E] | 100 to 1000 nM
32 | O=C(NC1CC12CCN(c1ccnc3ccc(F)cc13)CC2)c1ccc(Cl)cc1 (stereo not shown) [Compound 13-3, 4-chloro-N-(6-(6-fluoroquinolin-4-yl)-6-azaspiro[2.5]octan-1-yl)benzamide] | 100 to 1000 nM
33 | O=C(Nc1ccc(Cl)cc1)C1([C@H]2CC[C@H](c3ccnc4ccc(F)cc43)CC2)CC1 [Compound 24-5B, N-(4-chlorophenyl)-1-(4-(6-fluoroquinolin-4-yl)cyclohexyl)cyclopropyl-1-carboxamide] | < 100 nM
34 | O=C(Nc1ccc(Cl)cc1)C1CC12CCC(c1ccnc3ccc(F)cc13)CC2 (single isomer, unassigned) [Compound 1-11, N-(4-chlorophenyl)-6-(6-fluoroquinolin-4-yl)spiro[2.5]octane-1-carboxamide] | > 1000 nM
35 | O=C(Nc1ccc(Cl)cc1)C1(F)CC12CCC(c1ccnc3ccc(F)cc13)CC2 (stereo not shown) [Compound 10-4, N-(4-chlorophenyl)-1-fluoro-6-(6-fluoroquinolin-4-yl)spiro[2.5]octane-1-carboxamide] | 100 to 1000 nM
36 | O=C(Nc1cccc(C(F)(F)F)c1)[C@H]1C[C@]12CC[C@H](c1ccnc3ccc(F)cc31)CC2 [Compound 1-17] | > 1000 nM
37 | O=C(Nc1ccc(Cl)cc1)C1CC12CCN(c1ccnc3ccc(F)cc13)CC2 (single isomer, unassigned) [Compound 12-6, N-(4-chlorophenyl)-6-(6-fluoroquinolin-4-yl)-6-azaspiro[2.5]octane-1-carboxamide] | < 100 nM
38 | CC1(C(=O)Nc2ccc(Cl)cc2)CC12CCC(c1ccnc3ccc(F)cc13)CC2 (single isomer, unassigned) [Compound 11-5, N-(4-chlorophenyl)-6-(6-fluoroquinolin-4-yl)-1-methylspiro[2.5]octane-1-carboxamide] | < 100 nM
39 | O=C(Nc1ccc(C2CC2)cc1)[C@H]1C[C@]12CC[C@H](c1ccnc3ccc(F)cc31)CC2 [Compound 1-13] | 100 to 1000 nM
40 | O=C(Nc1cccc(Cl)c1)[C@H]1C[C@]12CC[C@H](c1ccnc3ccc(F)cc31)CC2 [Compound 1-15] | 100 to 1000 nM
41 | O=C(NC1CCC12CCC(c1ccnc3ccc(F)cc13)CC2)c1ccc(Cl)cc1 (stereo not shown) [Compound 14-7, 4-chloro-N-(7-(6-fluoroquinolin-4-yl)spiro[3.5]nonan-1-yl)benzamide] | > 1000 nM
42 | O=C(NCc1ccc(Cl)cc1)[C@H]1C[C@]12CC[C@H](c1ccnc3ccc(F)cc31)CC2 [Compound 1-21] | > 1000 nM
43 | N#Cc1ccc(NC(=O)[C@H]2C[C@]23CC[C@H](c2ccnc4ccc(F)cc42)CC3)cc1 (single isomer, unassigned) [Compound 4-6] | < 100 nM
44 | O=C(Nc1ccc(I)cc1)[C@H]1C[C@]12CC[C@H](c1ccnc3ccc(F)cc31)CC2 (single isomer, unassigned) [Compound 4-5] | < 100 nM
45 | O=C(Nc1ccc(Cl)cc1)C1CC12CCC(c1ccnc3ccc(F)cc13)CC2 (single isomer, unassigned) [Compound 1-10, N-(4-chlorophenyl)-6-(6-fluoroquinolin-4-yl)spiro[2.5]octane-1-carboxamide] | < 100 nM
46 | O=C(Nc1ccc(Cl)nc1)[C@H]1C[C@]12CC[C@H](c1ccnc3ccc(F)cc31)CC2 [Compound 1-23] | < 100 nM
47 | Cc1ccc(NC(=O)[C@H]2C[C@]23CC[C@H](c2ccnc4ccc(F)cc42)CC3)cc1 [Compound 1-14] | < 100 nM
48 | O=C(Nc1ccc(Cl)cc1F)[C@H]1C[C@]12CC[C@H](c1ccnc3ccc(F)cc31)CC2 [Compound 2-5] | < 100 nM
49 | O=C(Nc1ccc(Cl)cc1)[C@H]1C[C@]12CC[C@H](c1ccnc3ccc(Cl)cc31)CC2 [Compound 8-4A] | < 100 nM
